# Experimental data taken from patent publication US12122821B2, “Regulation of glucose metabolism using anti-CGRP antibodies” (H. LUNDBECK A/S, priority 2013, dated 2024).
# Experiments:
# [1] = tested on: Zucker diabetic fatty (ZDF) rat; assay: Fasting blood glucose, plasma insulin, C-peptide and HOMA-IR in ZDF rats (Example 3); assay type: in vivo; conditions: for increase of plasma C-peptide levels / increase of plasma insulin levels: vs vehicle ZDF; for increase of plasma C-peptide levels: NS; for increase of plasma insulin levels: ns
# Protocol: (§1) For the groups treated with AB14, the antibody was administered once weekly via the caudal vein (i.v., 5 mL/kg) on days 1, 8, 15, and 22 at two different doses 20 mg/kg/week (groups 3 and 7) or 60 mg/kg/week (groups 4 and 8). All other groups were treated once weekly with vehicle 1 (i.v., 5 mL/kg). The intravenous treatments were performed in the morning on day 1, 8, 15, and 22 while under isoflurane anaesthesia. The volume of administration was individually adapted according to the most recent body weight.
# (§2) All other groups were treated daily with vehicle 2 (p.o., 5 mL/kg) for 28 days. The most recent body weight was used to calculate the average volume of administration in each group.
# A fasting (6 hours on day 0 from 8:00 am to 02:00 pm, and overnight on day 12, 19 and 26 from ˜6:00 pm to ˜8:00 am) was performed before each blood collection. Blood was collected at ˜2:00 pm, from the tip of the tail, on day 0 (before screening, 150 μL, potassium EDTA), and at ˜8:00 am prior to dosing on days 12 (110 μL, potassium EDTA), 19 (150 μL, potassium EDTA) and 26, (110 μL, potassium EDTA).
# (§3) Fasting blood glucose (glucometers) was measured on days 0, 12, 19, and 26. Fasting plasma insulin, peptide-C (ELISA method), free fatty acids, triglycerides, total cholesterol (colorimetric method), and HDL-cholesterol (phosphotungstate precipitation, colorimetric method) were measured on day 0, and prior to dosing on days 12, 19, and day 26. Non HDL-cholesterol was calculated as total cholesterol—HDL-cholesterol. Fructosamine was measured on days 0, 19 and 28. HbA1c (DCA 2000) was measured on days 0 and 28.
# HFD rats = assay: Body weight and food intake in high fat/high fructose diet (HFD) rats (Example 2); assay type: in vivo, rat; conditions: vs HFD vehicle
# Protocol: After 6 weeks of HFD rats were randomized to treatment groups according to their glucose intolerance (AUC calculation during an oral glucose tolerance test (OGTT)) and their HOMA-IR (insulin resistance index).
# Body weight and food consumption were measured 3 times per week until 10 days of treatment. HOMA-IR was measured on day 10 and 15. A 2-step clamp (5 mU/kg/min and then 15 mU/kg/min insulin) was performed on day 15 or 16. Glucose Turnover (GTO) was assessed using ^3H-glucose tracer infusion during the clamp procedure.
# Ab14 (10, 30, 100 mg/kg) and the vehicle were weekly administered via i.v. route (via the caudal vein, under isoflurane anaesthesia), in the morning, on day 1 and day 8 of treatment.
# Body weight was measured once a week during the first six week of HFD. Body weight was measured 3 times per week during the first 10 days of treatment. Food consumption was measured over 48 h or 72 h, just before treatment and 3 times per week during treatment until surgery procedure (day 11).
# [2] = tested on: Zucker diabetic fatty (ZDF) rat; assay: Fructosamine and HbA1c in ZDF rats (Example 3); assay type: in vivo; conditions: metformin 200 mg/kg/day, vs vehicle ZDF
# Protocol: as §1, §2, §3
# [3] = day 12, metformin 200 mg/kg/day
# [4] = day 19, metformin 200 mg/kg/day
# [5] = day 26, metformin 200 mg/kg/day
# [6] = Ab14 10, 30, 100 mg/kg/week i.v., metformin 200 mg/kg/day
smiles,measurement,setting,value
"CN(C)C(=N)N=C(N)N [metformin, reference compound]",increase of plasma C-peptide levels,[1]; [3],23%
same,increase of plasma insulin levels,[1]; [3],79%
same,increase of plasma C-peptide levels,[1]; [4],21%
same,increase of plasma insulin levels,[1]; [4],55%
same,"fasting blood glucose, effect","[1]; day 19 and 26, metformin 200 mg/kg",not observed
same,increase of plasma C-peptide levels,[1]; [5],9%
same,increase of plasma insulin levels,[1]; [5],48%
same,HOMA-IR,"[1]; days 12, 19 and 26, metformin 200 mg/kg/day alone or in combination with AB14, vs vehicle ZDF",increase of HOMA-IR
same,body weight,"HFD rats; 10 days of treatment, Ab14 10, 30, 100 mg/kg/week i.v., metformin 200 mg/kg/day",significantly decreased
same,body weight gain,"HFD rats; Ab14 30 mg/kg, metformin 200 mg/kg",significantly decreased
same,decrease of cumulative food consumption,HFD rats; [6],25%
same,food consumption (follow-up food intake),HFD rats; [6],significantly decreased
same,decrease of HbA1c,"[2]; 28 days, pioglitazone 10 mg/kg/day",15%
same,reduction of fructosamine levels,"[2]; day 19, pioglitazone 10 mg/kg/day",6%
